Patent US10028961B2, “Therapeutically active compounds and their methods of use” (AGIOS PHARMACEUTICALS, INC., priority 2013, dated 2018)

Key:
[1] = tested on: U87MG pLVX-IDH2 R140Q-neo cells; experiment: U87MG pLVX-IDH2 R140Q-neo cell based assay, 2-HG by LC-MS; conditions: Homo sapiens, U-87 MG
[2] = tested on: Neurosphere cells (TS603); experiment: Cellular assay for IDH1m R132H inhibitors, 2-HG by LC-MS in neurosphere cells (TS603); type: cell-based; conditions: 2-HG in media at 48 hours
Method in brief: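 TS603 neurosphere cells in NeuroCult medium were dosed with compound (0.25% DMSO final) at 37 C, 5% CO2. After 48 hours, medium 2-HG was measured by LC-MS. At 72 hours, viability was read by CellTiter-Glo luminescence.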

[3] = target: IDH1-R132H homodimer enzyme (Homo sapiens (Human), UniProt O75874, R132H); experiment: In vitro assay IDH1-R132H homodimer, NADPH depletion assay with NADPH/NADP preincubation; type: biochemical; conditions: 5 μM NADPH and 37.5 μM NADP
IDH1-R132H homodimer enzyme, sequence (O75874 whole entry R132H): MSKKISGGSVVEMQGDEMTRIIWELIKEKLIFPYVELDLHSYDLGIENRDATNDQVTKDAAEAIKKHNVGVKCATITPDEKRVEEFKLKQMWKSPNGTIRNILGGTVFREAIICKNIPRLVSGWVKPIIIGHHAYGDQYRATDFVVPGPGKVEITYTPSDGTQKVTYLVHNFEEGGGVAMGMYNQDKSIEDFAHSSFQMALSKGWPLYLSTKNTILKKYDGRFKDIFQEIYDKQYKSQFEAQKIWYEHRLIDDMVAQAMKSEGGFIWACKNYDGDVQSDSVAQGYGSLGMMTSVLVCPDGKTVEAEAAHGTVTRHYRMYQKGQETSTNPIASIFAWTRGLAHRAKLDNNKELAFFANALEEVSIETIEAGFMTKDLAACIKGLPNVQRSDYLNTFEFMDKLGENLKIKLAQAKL
Method in brief: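 Conversion of alpha-ketoglutarate to 2-hydroxyglutarate tracked by NADPH depletion. Reaction started with 5 mM alpha-ketoglutarate plus NADPH substrate mix (50 μl total), 60 min at room temperature. Leftover NADPH quantified via diaphorase/resazurin fluorescence.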

[4] = target: IDH1 wt/IDH1 R132H heterodimer (Homo sapiens (Human), UniProt O75874, R132H); experiment: In vitro assay for IDH1m R132H inhibitors, IDH1 wt/IDH1 R132H heterodimer, NADPH depletion (diaphorase/resazurin); type: biochemical; conditions: IDH1 wt/IDH1 R132H heterodimer, 300 μM NADP (saturated); read-out: IDH1 wt/R132H NADPH/NADP IC50 saturated
IDH1 wt/IDH1 R132H heterodimer, sequence (O75874 whole entry R132H): as above
IDH1 wt/IDH1 R132H heterodimer, sequence (O75874 whole entry, stated change not applied): as the sequence (O75874 whole entry R132H) above, with H132R counted along it
Method in brief: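 Purified IDH1wt-his/IDH1R132H-flag heterodimer (sf9 co-expression) pre-incubated 1 hr at room temperature with compound and NADPH before α-KG addition. Remaining NADPH read by diaphorase/resazurin conversion to fluorescent resorufin, 5 min at 25° C. Compounds diluted 1:50 from DMSO; IC50 determined.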

[5] = target: IDH1-R132C homodimer enzyme (Homo sapiens (Human), UniProt O75874, R132C); experiment: In vitro assay IDH1-R132C homodimer, NADPH depletion assay with NADPH/NADP preincubation; type: biochemical; conditions: 5 uM NADPH and 28.75 uM NADP, read-out: IDH R132C NADPH/NADP IC50
IDH1-R132C homodimer enzyme, sequence (O75874 whole entry R132C): as the sequence (O75874 whole entry R132H) above, with H132C counted along it
Description: The following describes the experimental procedures that can be used to obtain data on columns 3 and 5 of Table 5.
A test compound is prepared as 10 mM stock in DMSO and diluted to 50× final concentration in DMSO, for a 50 μl reaction mixture. IDH enzyme activity converting alpha-ketoglutarate to 2-hydroxyglutaric acid is measured using a NADPH depletion assay. In the assay the remaining cofactor is measured at the end of the reaction with the addition of a catalytic excess of diaphorase and resazurin, to generate a fluorescent signal in proportion to the amount of NADPH remaining. […] The reaction is started with the addition of 10 μl of Substrate Mix ([…], 5 mM alpha-ketoglutarate, in Assay Buffer) and the mixture is incubated for 60 minutes at room temperature.
The concentration of alpha-ketoglutarate in the Substrate Buffer is 1 mM.

IDH2 R140Q = IDH2 R140Q (Homo sapiens (Human), UniProt P48735, R140Q); experiment: In vitro assay for IDH2m R140Q inhibitors, cofactor depletion assay; type: biochemical; conditions: IDH2 R140Q enzyme
IDH2 R140Q, sequence (P48735 40-452 R140Q): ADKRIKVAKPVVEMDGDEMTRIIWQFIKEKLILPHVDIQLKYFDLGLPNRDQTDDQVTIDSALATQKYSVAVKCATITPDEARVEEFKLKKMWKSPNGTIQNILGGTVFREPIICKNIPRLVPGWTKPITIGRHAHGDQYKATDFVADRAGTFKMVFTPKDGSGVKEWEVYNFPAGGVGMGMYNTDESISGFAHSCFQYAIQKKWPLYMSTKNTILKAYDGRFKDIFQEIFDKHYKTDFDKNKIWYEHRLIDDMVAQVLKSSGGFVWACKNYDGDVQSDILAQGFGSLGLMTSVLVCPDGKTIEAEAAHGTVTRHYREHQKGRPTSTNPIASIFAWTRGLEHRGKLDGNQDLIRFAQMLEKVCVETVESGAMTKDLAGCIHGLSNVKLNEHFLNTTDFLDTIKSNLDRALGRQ
Method in brief: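 Remaining cofactor measured fluorimetrically: diaphorase/resazurin Stop Mix […], halting the reaction. Before that, mutant enzyme and compound sat 1 h at RT, then substrate mix (4 μM NADPH, 1.6 mM α-KG) was added for 16 h at RT.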

Measured: IC50

FC1(F)CC[C@@H](Nc2nc(N[C@@H]3CCC(F)(F)C3)nc(-c3cncc(C(F)(F)F)n3)n2)C1 [Compound 410]
< 50 nM: all assays above
